# In publication PMC5920042, “KH176 Safeguards Mitochondrial Diseased Cells from Redox Stress-Induced Cell Death by Interacting with the Thioredoxin System/Peroxiredoxin Enzyme Machinery” (Scientific Reports, 2018):
# Legend:
# P4 cell line [1] = experiment: Redox Stress Survival assay (BSO-induced cell death, Calcein AM viability); type: cell-based, human; conditions: for EC50: 24 h, P4 cells, 200 µM BSO
# Method: Cells were seeded at a density of 4 × 10^3 cells/well into 96-wells black plates and incubated for 24 h. To induce redox stress, semi-logarithmic dilutions of buthionine sulphoximine (BSO, #B2515, Sigma Aldrich) up to 100 µM were added to the cells in culture medium and incubated for 24 h. Cell viability was assessed by quantification of cellular conversion of Calcein AM into fluorescent Calcein. Briefly, after having discarded the BSO containing medium, cells were washed once with M199 without phenol red and loaded with 2 µM Calcein AM (#65-0853-39, Affimetrix eBioscience) in M199 without phenol red for 25 min. At the end of the incubation period, the excess of the dye was washed with M199 without phenol red and Calcein fluorescence was measured with a scanning microplate reader (BMG FLUOstar Omega; Ex. 480 nm, Em. 520 nm). For compound screening and target identification measurements cells were treated with 200 µM BSO alone or in co-incubation with semi-logarithmic dilutions of the test compound. Additionally, where indicated, increasing doses of Auranofin (AFN, #BML-EI206-0100, Enzo) or Aurothioglucose (ATG, #A0606, Sigma Aldrich) were co-incubated with BSO and the test compound. In all cases, cell viability was assessed 24 h after the treatment.
# [2] = system: primary human skin fibroblasts; experiment: CumOOH induced lipid peroxidation (bodipy 581/591 C11); type: cell-based; conditions: Homo sapiens, Skin fibroblast; 30 µM cumOOH, bodipy 581/591 C11
# Method: The cells were seeded at a density of 3 × 10^3 cells/well into 96-wells black plates. After 24 h, the cells were coincubated with 500 nM bodipy 581/591 C11 (#D3861, Thermo Fisher) and different amounts of KH compound in M199 without phenol red. This medium was used in all subsequent washes and incubations. After 30 min. incubation the cells were washed twice and subsequently incubated with 30 μM cumene hydroperoxide (cumOOH). For background subtractions cells with the dye but without cumOOH were used. After 30 minutes incubation and two washes oxidized bodipy 581/591 C11 was quantified on an automated bioimager (BD Pathway 855), by using a 20x objective and Ex. 488/10 nm, Em. FURA/FITC. Total cellular fluorescence per well was normalized on the number of cellular pixels/well and normalized on the incubation with probe and cumOOH but without compound (vehicle set as 100%). Experiments were performed at least three times with 3 wells per experiment.
# P4 cell line [3] = experiment: GSH measurements (GSH-Glo) under BSO; type: cell-based, human; conditions: increasing BSO 24 h, 3 µM compound
# Method: Cells were seeded at a density of 4 × 10^3 cells/well into 96-wells white plates (#655098, Greiner Bio-one). After 24 h the cells were treated with semi-logarithmic dilutions of BSO up to a concentration of 100 µM alone or in co-incubation with a fixed amount of the test compound. 24 h after the treatment, GSH levels were measured with the GSH-Glo™ Glutathione Assay (# V6911, Promega) according to the manufacturer instructions. Luminescence was measured on a scanning microplate reader (BMG FLUOstar Omega).
# [4] = 28-day repeat oral dose toxicity study, toxicokinetics; type: in vivo, Sprague Dawley rats; conditions: Sprague Dawley, rat, plasma, po; for AUC(0-t): read-out: AUC0–24 h; for Cmax: read-out: Cmax
# Method: (§1) Pharmacokinetics and toxicokinetics measurements were performed by the commercial Contract Research Organizations Sai Life Sciences and WuXi AppTec, respectively, according to their standard protocols and in accordance with relevant guidelines and regulations. C57 BL/6 mice, Sprague Dawley rats, and Beagle dogs were studied.
# P4 cell line [5] = experiment: Cellular ROS assay (DCFH-DA); type: cell-based, human; conditions: Homo sapiens; P4 cells, 24 h compound treatment
# Method: The cells were then treated for 72 h (or shorter as indicated) with culture medium containing semi-logarithmic dilutions of the test compound. Alternatively, 3 × 10^3 cells/well were seeded when cells were treated for 24 h only. At the end of the incubation period, cells were loaded with 40 µM DCFH-DA (#D6883, Sigma-Aldrich). in M199 without phenol red for 30 min. The excess of the dye was washed with ice-cold M199 without phenol red and the cells were lysed with 100 µl/well of ice-cold 0.2% Triton X-100 in M199 without phenol red after 10 min incubation in ice. Cellular debris was spun down by centrifugation at 2600 g, 5 min, +4 °C and 90 µl/well of cell lysate were transferred to a black 96-wells plate and DCF fluorescence was measured on a scanning microplate reader (BMG FLUOstar Omega; Ex. 480 nm, Em. 520 nm).
# [6] = Single dose pharmacokinetics and bioavailability study; type: in vivo, male Sprague Dawley rats; conditions: male, Sprague Dawley, rat, plasma
# Method: as §1
# [7] = female, 25 mg/kg, KH176 25 mg/kg/dose BID oral, F, Day 1, plasma
# [8] = female, 25 mg/kg, KH176 25 mg/kg/dose BID oral, F, Day 28, plasma
# [9] = female, 75 mg/kg, KH176 75 mg/kg/dose BID oral, F, Day 1, plasma
# [10] = female, 75 mg/kg, KH176 75 mg/kg/dose BID oral, F, Day 28, plasma
# [11] = female, 250 mg/kg, KH176 250 mg/kg/dose BID oral, F, Day 1, plasma
# [12] = female, 250 mg/kg, KH176 250 mg/kg/dose BID oral, F, Day 28, plasma
# [13] = male, 25 mg/kg, KH176 25 mg/kg/dose BID oral, M, Day 1, plasma
# [14] = male, 25 mg/kg, KH176 25 mg/kg/dose BID oral, M, Day 28, plasma
# [15] = male, 75 mg/kg, KH176 75 mg/kg/dose BID oral, M, Day 1, plasma
# [16] = male, 75 mg/kg, KH176 75 mg/kg/dose BID oral, M, Day 28, plasma
# [17] = male, 250 mg/kg, KH176 250 mg/kg/dose BID oral, M, Day 1, plasma
# [18] = male, 250 mg/kg, KH176 250 mg/kg/dose BID oral, M, Day 28, plasma
structure (smiles),measurement,setting,value
"Cc1c(C)c2c(c(C)c1O)CC[C@@](C)(C(=O)N[C@@H]1CCCNC1)O2.Cl [KH176, (S)-6-hydroxy-2,5,7,8-tetramethyl-N-((R)-piperidin-3-yl)chroman-2-carboxamide hydrochloride]",EC50,P4 cell line [1]; Homo sapiens,0.269 µM
same,EC50,P4 cell line [1],0.27 µM
same,Viability of patient cells under BSO,"P4 cell line [1]; increasing BSO 24 h, 3 µM compound",fully protected
same,IC50,[2],64 µM
same,GSH level under BSO,P4 cell line [3],remained unaffected
same,half-life,[4]; [7],2.6 h
same,AUC(0-t),[4]; [7],12500 ng·h/mL
same,Cmax,[4]; [7],1360 ng/mL
same,half-life,[4]; [8],3.2 h
same,AUC(0-t),[4]; [8],19000 ng·h/mL
same,Cmax,[4]; [8],2270 ng/mL
same,half-life,[4]; [9],8.4 h
same,AUC(0-t),[4]; [9],42400 ng·h/mL
same,Cmax,[4]; [9],3050 ng/mL
same,half-life,[4]; [10],6 h
same,AUC(0-t),[4]; [10],76900 ng·h/mL
same,Cmax,[4]; [10],5340 ng/mL
same,AUC(0-t),[4]; [11],104000 ng·h/mL
same,Cmax,[4]; [11],6970 ng/mL
same,AUC(0-t),[4]; [12],243000 ng·h/mL
same,Cmax,[4]; [12],13300 ng/mL
same,half-life,[4]; [13],2.4 h
same,AUC(0-t),[4]; [13],10500 ng·h/mL
same,Cmax,[4]; [13],979 ng/mL
same,half-life,[4]; [14],5.6 h
same,AUC(0-t),[4]; [14],15600 ng·h/mL
same,Cmax,[4]; [14],1600 ng/mL
same,half-life,[4]; [15],4.5 h
same,AUC(0-t),[4]; [15],33100 ng·h/mL
same,Cmax,[4]; [15],2860 ng/mL
same,AUC(0-t),[4]; [16],46200 ng·h/mL
same,Cmax,[4]; [16],4210 ng/mL
same,AUC(0-t),[4]; [17],94000 ng·h/mL
same,Cmax,[4]; [17],5890 ng/mL
same,half-life,[4]; [18],8.3 h
same,AUC(0-t),[4]; [18],157000 ng·h/mL
same,Cmax,[4]; [18],11200 ng/mL
same,IC50,P4 cell line [5],22.5 µM
same,AUC(0-inf),"[6]; iv, KH176 2 mg/kg i.v.",518 ng·h/mL
same,AUC(0-t),"[6]; iv, KH176 2 mg/kg i.v.",510 ng·h/mL
same,clearance,"[6]; iv, KH176 2 mg/kg i.v.",64.6 mL/min/kg
same,half-life,"[6]; iv, KH176 2 mg/kg i.v.",2.6 h
same,C0,"[6]; iv, KH176 2 mg/kg i.v., back extrapolated",344 ng/mL
same,Vd,"[6]; iv, KH176 2 mg/kg i.v., read-out: Vss",7 L/kg
same,bioavailability,"[6]; oral, 10 mg/kg p.o. vs 2 mg/kg i.v., from AUClast, read-out: F (oral bioavailability)",74%
same,AUC(0-inf),"[6]; po, KH176 10 mg/kg p.o.",1930 ng·h/mL
same,AUC(0-t),"[6]; po, KH176 10 mg/kg p.o.",1870 ng·h/mL
same,Cmax,"[6]; po, KH176 10 mg/kg p.o.",594 ng/mL
same,Tmax,"[6]; po, KH176 10 mg/kg p.o., read-out: Tmax",0.67 h
